Data taken from US12497398B2, “Potent and selective covalent inhibitors of serine-arginine protein kinase (SRPK) 1 and SRPK2 and uses thereof” (DANA-FARBER CANCER INSTITUTE, INC., priority 2020, dated 2025).
Read-outs that look alike come from different tables or passages of the source.

Assays:
SRPK1 = SRPK1 (Homo sapiens, UniProt Q96SB4); assay: Z'-LYTE kinase assay, SRPK1 inhibition; type: biochemical
Procedure: (§1) IC50 values were determined by Z'-LYTE® kinase assay (catalog number PV3193, Invitrogen™) as described in Hatcher et al., Cell Chem. Biol. 25:460-470 (2018).

SRPK2 = SRPK2 (Homo sapiens, UniProt P78362); assay: Z'-LYTE kinase assay, SRPK2 inhibition; type: biochemical
Procedure: as §1

[1] = Z'-LYTE kinase assay, read-out: IC50 (nM) SRPK1
[2] = Z'-LYTE kinase assay, read-out: IC50 (nM) SRPK2

SRPK1, sequence (Q96SB4 whole entry): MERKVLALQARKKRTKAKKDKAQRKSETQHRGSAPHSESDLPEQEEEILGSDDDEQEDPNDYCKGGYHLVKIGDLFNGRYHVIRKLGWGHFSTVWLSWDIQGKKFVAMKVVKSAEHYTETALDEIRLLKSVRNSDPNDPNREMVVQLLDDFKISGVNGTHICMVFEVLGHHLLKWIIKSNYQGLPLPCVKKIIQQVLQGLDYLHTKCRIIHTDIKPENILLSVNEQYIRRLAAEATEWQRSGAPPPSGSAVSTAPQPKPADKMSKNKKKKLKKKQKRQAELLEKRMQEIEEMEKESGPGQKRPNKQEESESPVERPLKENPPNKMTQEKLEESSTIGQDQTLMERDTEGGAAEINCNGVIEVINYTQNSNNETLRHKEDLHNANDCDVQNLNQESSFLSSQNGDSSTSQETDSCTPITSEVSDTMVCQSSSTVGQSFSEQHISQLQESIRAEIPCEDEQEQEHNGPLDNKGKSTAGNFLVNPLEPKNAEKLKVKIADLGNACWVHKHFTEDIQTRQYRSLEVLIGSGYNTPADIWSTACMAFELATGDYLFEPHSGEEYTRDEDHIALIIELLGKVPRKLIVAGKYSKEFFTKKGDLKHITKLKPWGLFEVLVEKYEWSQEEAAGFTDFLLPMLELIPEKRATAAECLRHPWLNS
SRPK2, sequence (P78362 whole entry): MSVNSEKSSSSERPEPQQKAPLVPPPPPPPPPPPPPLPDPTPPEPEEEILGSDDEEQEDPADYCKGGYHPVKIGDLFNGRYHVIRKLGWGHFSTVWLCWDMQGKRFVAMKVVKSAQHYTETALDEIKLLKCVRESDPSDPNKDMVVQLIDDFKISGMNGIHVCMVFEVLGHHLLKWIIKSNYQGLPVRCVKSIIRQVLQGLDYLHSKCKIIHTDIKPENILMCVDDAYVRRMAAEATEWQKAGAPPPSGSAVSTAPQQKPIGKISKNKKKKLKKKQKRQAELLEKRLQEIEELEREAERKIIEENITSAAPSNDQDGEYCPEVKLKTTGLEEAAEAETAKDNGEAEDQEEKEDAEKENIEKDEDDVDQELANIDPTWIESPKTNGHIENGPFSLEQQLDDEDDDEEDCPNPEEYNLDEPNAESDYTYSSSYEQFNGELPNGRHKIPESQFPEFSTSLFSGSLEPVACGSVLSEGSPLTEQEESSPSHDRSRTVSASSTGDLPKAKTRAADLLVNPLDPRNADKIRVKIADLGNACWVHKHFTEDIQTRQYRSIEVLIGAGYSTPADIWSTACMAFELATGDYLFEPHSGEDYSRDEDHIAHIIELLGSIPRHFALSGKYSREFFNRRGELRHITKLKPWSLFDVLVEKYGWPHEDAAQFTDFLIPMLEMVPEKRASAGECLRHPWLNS

`CCc1cc2c(=O)c3c4ccc(C#N)cc4[nH]c3n(C(C)C)c2cc1-c1cccc(S(=O)(=O)F)c1` [Compound 1, 3-(8-cyano-2-ethyl-5-isopropyl-11-oxo-6,11-dihydro-5H-indolo[2,3-b]quinolin-3-yl)benzenesulfonyl fluoride] was tested, and the IC50 (SRPK1; [1]) was 6 nM and the IC50 (SRPK2; [2]) was 9 nM.
With `COc1cc2c(=O)c3c4ccc(C#N)cc4[nH]c3n(C(C)C)c2cc1-c1cccc(S(=O)(=O)F)c1` [Compound 2, 3-(8-cyano-5-isopropyl-2-methoxy-11-oxo-6,11-dihydro-5H-indolo[2,3-b]quinolin-3-yl)benzenesulfonyl fluoride] the IC50 (SRPK1) was 4 nM and the IC50 (SRPK2) was 5 nM.
Work on `COc1cc2c(=O)c3c4ccc(C#N)cc4[nH]c3n(C(C)C)c2cc1-c1cncc(S(=O)(=O)F)c1` [Compound 3, 5-(8-cyano-5-isopropyl-2-methoxy-11-oxo-6,11-dihydro-5H-indolo[2,3-b]quinolin-3-yl)pyridine-3-sulfonyl fluoride] yielded an IC50 (SRPK1; [1]) of 6 nM and an IC50 (SRPK2; [2]) of 5 nM.
